According to article PMC8746705, “Comparison of Experimental Strategies to Study L-Type Amino Acid Transporter 1 (LAT1) Utilization by Ligands” (Molecules, 2021):
Read-outs that look alike come from different tables or passages of the source.

Legend:
LAT1 [1] = biological target: T1, LAT1 (Mus musculus, UniProt Q9Z127); assay: Cis-inhibition of radiolabelled LAT1-probe substrate uptake into BV2 cells; format: cell-based; conditions: 5 min, mean ± SD
Method: (§1) After removal of the culture medium, the BV2 cells were carefully washed with pre-warmed HBSS (Hank’s balanced salt solution) containing 125.0 mM choline chloride, 4.8 mM KCl, 1.2 mM MgSO4, 1.2 mM KH2PO4, 1.3 mM CaCl2, 5.6 mM glucose, and 25.0 mM HEPES (pH 7.4 adjusted with 1 M NaOH). Pre-incubation was done with 500 μL of pre-warmed HBSS at 37 °C for 10 min before adding substrates (250 μL in HBSS) for the uptake experiments.
The ability of compounds 1–15 to inhibit the uptake of a known LAT1 substrate [^14C]-L-leucine was then evaluated by incubating the cells at 37 °C for 5 min in uptake buffer pH 7.4 (250 μL) containing 0.2 µCi/mL of [^14C]-L-leucine, or 2 µCi/mL of [^3H]-L-methionine, [^3H]-L-tryptophan or [^3H]-L-kynurenine (PerkinElmer, Waltham, MA, USA) and 0.1–1000 μM of the studied compound (or HBSS as blank). After incubation, the uptake was stopped by adding 250 µL of ice-cold HBSS, and the cells were washed two times with ice-cold HBSS. The cells were then lysed with 500 μL of NaOH (0.1 M) for 60 min and the lysate was mixed with 3.5 mL of Emulsifier safe cocktail (Ultima Gold, PerkinElmer, Waltham, MA, USA). The radioactivity in the cells was measured by liquid scintillation counting (MicroBeta^2 counter, PerkinElmer Waltham, MA, USA). Half of the maximum inhibitory concentration (IC50) values were calculated by nonlinear regression analysis (fitting the curve to log (concentration) vs. remaining normalized […]).

LAT1 [2] = biological target: T1, LAT1; assay: Inhibition type of [14C]-L-Leu uptake (Hanes-Woolf plots) in BV2 cells; format: cell-based; conditions: for Vmax of [14C]-L-Leu uptake: 0.010–0.20 µM [14C]-L-Leu in the presence of the compound at its IC50, mean ± SD, n = 3–4; for IC50: Table 2, compound concentration used in the inhibition type study, corresponding to IC50 of [14C]-L-Leu uptake; for Inhibition Type: of [14C]-L-Leu uptake, concluded from Km and Vmax
Method: as §1
To evaluate the inhibition type of studied compounds, the BV2 cells were incubated with 0.010–0.20 μM [^14C]-L-leucine together with the studied compound. The concentration of compounds was selected according to the compound-specific IC50 values. The experiment was then carried out as described for the [^14C]-L-leucine uptake above and the radioactivity was measured by liquid scintillation counting. Hanes-Woolf plots were created by setting the ratio of initial substrate concentration to the reaction velocity ([S]/v) against [^14C]-L-leucine concentration (µM). The linear regression was used to calculate Km value (negative value of x-intercept) and Vmax value (1/slope) for [^14C]-L-leucine.

[3] = Time-dependent cellular uptake of compounds into BV2 cells (LC-MS/MS); format: cell-based, mouse; conditions: mouse, BV2 microglia cells, 100 µM compound, 1–60 min, mean ± SD, n = 3, read-out: T½ of cellular uptake
Method: (§2) For the time-dependent cellular uptake experiments, the BV2 cells on 24-well plates were incubated with studied compounds (100 μM) in a pre-warmed HBSS buffer (250 μL) at 37 °C for 1–60 min. Subsequently, the cells were washed three times with an ice-cold HBSS and lysed with 250 μL of NaOH (0.1 M) for 60 min. The lysates were diluted with acetonitrile (ACN) including the selected internal standard (diclofenac to all compounds) with a ratio of 1:3 and centrifuged at 10,000× g for 10 min. The samples were analyzed by the liquid chromatography-tandem mass spectrometric (LC-MS/MS) methods as described below. The concentrations of each compound in cell lysates were calculated from the standard curve that was prepared by spiking known amounts of compounds to ACN including the selected internal standard and then normalized with protein concentration. The protein concentrations on each plate were determined as a mean of three samples by Bio-Rad Protein Assay, based on the Bradford dye-binding method, using bovine serum albumin (BSA) as a standard protein and measuring the absorbance (595 nm) by multiplate reader (EnVision, Perkin Elmer, Inc., Waltham, MA, USA).
(§3) The studied compounds (1–15) were analyzed by using Agilent 1200 Series Rapid Resolution LC System together with an Agilent 6410 Triple Quadrupole Mass Spectrometer equipped with an electrospray ionization source (Agilent Technologies, Santa Clara, CA, USA). The chromatographic separations of analytes were achieved by using a reversed-phase Zobrax SB-C18 column (50 mm × 2.1 mm, 1.8 μm; Agilent Technologies, Santa Clara, CA, USA) by eluting the samples with 0.1% formic acid in water (A) and 0.1% formic in ACN (B). Labetalol and diclofenac were used as internal standards (ISTD) for the prodrugs and parent drugs, respectively. The transitions used for the quantification at the positive ion mode and chromatographic conditions of each compound and their parent drugs are listed in Table S1. The methods of compounds 1–11 have been reported earlier, while the methods of compounds 12–15 are reported herein for the first time.

[4] = system: immortalized mouse microglia (BV2); assay: as above; format: cell-based; conditions: 100 µM compound, 1–60 min, mean ± SD, n = 3
Method: as §2, §3

LAT1 [5] = biological target: T1, LAT1; assay: Concentration-dependent cellular uptake into BV2 cells, Eadie–Hofstee analysis, Transport Type 1 (LAT1); format: cell-based
Method: For the concentration-dependent cellular uptake experiments, the BV2 cells on 24-well plates were incubated with studied compounds (1–200 μM) in pre-warmed HBSS buffer (250 μL) at 37 °C for 30 min. The experiment was then carried out as described for the time-dependent uptake above and the concentration of studied compounds in the cell lysate was analyzed by the LC-MS/MS methods described above and the results were normalized to the total protein concentration. The distinct transport mechanisms were separated from the Michaelis-Menten kinetics by using Eadie–Hofstee plot.
as §3

LAT1 [6] = biological target: T1, LAT1; assay: Cellular uptake of compounds in the presence of LAT1-inhibitor (KMH-233); format: cell-based; conditions: 100 µM compound, 100 µM KMH-233, 30 min, BV2
Method: The competitive uptake in the presence of LAT1-inhibitor (KMH-233) was carried out as described above with HBSS buffer solution containing 100 µM of the studied compounds. The cells were pre-incubated with 100 µM LAT1-inhibitor for 10 min and the incubation mixture was removed before adding the studied compound and LAT1-inhibitor on the cells. The competitive uptake (30 min) with the inhibitor was then carried out as the normal uptake described above. The amounts of studied compounds were analyzed by the LC-MS method and calculated from the spiked standard curve and normalized with the protein concentrations.

[7] = Stability / bioconversion of prodrugs to parent drugs (biological media, 0.1 M NaOH cell lysing); format: in vitro ADME; conditions: cell lysate samples for LC-MS/MS (Table S1 footnote)
Text: LAT1-utilizing prodrugs 1–15 (Figure 1) were selected for this study based on their ability to utilize LAT1 expressed in cells used in our previous studies. Therefore, the syntheses of these compounds are not described herein as they have been reported earlier. These compounds include prodrugs of an investigational immunosuppressive agent, perforin inhibitor (1), non-steroidal anti-inflammatory drugs (NSAIDs), ketoprofen (2–4, 14), salicylic acid (8), flurbiprofen (9 and 12), ibuprofen (10 and 13) and naproxen (11 and 15), as well as the polyphenolic antioxidant, ferulic acid (5–7). […] In addition, all NSAID prodrugs (compounds 2–4, 9–15) were prepared from their pure S-enantiomers. Prodrugs of ferulic acid (compounds 5–7) were mixtures of E- and […], which were interconvertible over time. […] Therefore, both prodrug and the released parent drug proportions were quantified and taken into account when calculating concentrations transported into the cells.
1. LC-MS/MS ionization parameters of compounds 1-15
Table S1. Ionization parameters for the LC-MS/MS methods of the studied compounds.
Precursor Product Fragmentor Collision Flow rate Gradient LLOQ
Compound ion ion(s) Voltage (V) Energy (mL/min) (A:B) (nM) […]
perforin inhibitor 1a and therefore, their transitions with a positive ion mode are reported only as KPF or as a prodrug and parent drug in parentheses. […]
drugs (ferulic acid (FA), flurbiprofen (FLB), ibuprofen (IBU), and naproxen (NPX), respectively), whose transitions with a negative ion mode are reported below the studied LAT1 -utilizing compounds i n parentheses.

LAT1 [8] = biological target: T1, LAT1; set-up: method as in earlier work; conditions: BV2 cells; probe [14C]-L-Leu; mean ± SD; published earlier; ref [31] or [33]; read-out: IC50 of [14C]-L-Leu uptake; cited from earlier work
LAT1 [9] = biological target: T1, LAT1; assay: LAT1 function followed between cell passages with [14C]-L-leucine; conditions: BV2 cells, passages 8–15
[10] = probe [3H]-L-Kynu, n = 3–4, read-out: IC50 of [3H]-L-Kynu uptake
[11] = probe [3H]-L-Met, n = 3–4, read-out: IC50 of [3H]-L-Met uptake
[12] = probe [3H]-L-Trp, n = 3–4, read-out: IC50 of [3H]-L-Trp uptake
[13] = 1–200 µM, 30 min, BV2, Eadie–Hofstee, mean ± SD, n = 3

T1 sequence (Q9Z127 whole entry): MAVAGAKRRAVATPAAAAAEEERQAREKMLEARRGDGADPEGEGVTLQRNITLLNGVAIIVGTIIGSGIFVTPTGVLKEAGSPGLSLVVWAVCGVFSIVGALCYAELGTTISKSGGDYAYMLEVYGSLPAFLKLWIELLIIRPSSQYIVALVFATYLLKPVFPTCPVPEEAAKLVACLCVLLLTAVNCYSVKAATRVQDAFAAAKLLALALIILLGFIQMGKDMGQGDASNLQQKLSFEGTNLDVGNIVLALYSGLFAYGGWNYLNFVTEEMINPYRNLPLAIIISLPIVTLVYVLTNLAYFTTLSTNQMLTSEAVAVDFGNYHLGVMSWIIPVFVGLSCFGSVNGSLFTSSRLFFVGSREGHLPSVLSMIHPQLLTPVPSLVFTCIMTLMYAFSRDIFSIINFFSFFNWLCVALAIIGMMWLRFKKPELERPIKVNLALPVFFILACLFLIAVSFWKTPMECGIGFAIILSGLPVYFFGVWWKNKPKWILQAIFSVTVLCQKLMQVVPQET
T1 sequence (P10852 whole entry partner): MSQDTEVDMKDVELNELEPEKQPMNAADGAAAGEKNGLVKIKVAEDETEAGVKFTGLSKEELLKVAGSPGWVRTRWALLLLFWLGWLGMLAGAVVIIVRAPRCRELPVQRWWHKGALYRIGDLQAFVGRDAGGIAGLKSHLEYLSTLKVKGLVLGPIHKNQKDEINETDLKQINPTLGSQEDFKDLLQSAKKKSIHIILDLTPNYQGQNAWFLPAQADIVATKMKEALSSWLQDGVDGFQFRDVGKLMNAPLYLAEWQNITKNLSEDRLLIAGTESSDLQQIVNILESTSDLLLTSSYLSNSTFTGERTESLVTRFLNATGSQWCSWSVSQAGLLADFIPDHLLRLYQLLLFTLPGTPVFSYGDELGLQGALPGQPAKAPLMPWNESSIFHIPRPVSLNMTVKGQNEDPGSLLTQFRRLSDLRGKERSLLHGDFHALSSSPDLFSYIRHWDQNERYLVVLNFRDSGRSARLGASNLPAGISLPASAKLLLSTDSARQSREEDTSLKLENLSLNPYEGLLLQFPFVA

Row | Structure (SMILES) | IC50 (LAT1 [1]; [10]) [µM] | IC50 (LAT1 [1]; [11]) [µM] | IC50 (LAT1 [1]; [12]) [µM] | Vmax of [14C]-L-Leu uptake (LAT1 [2]; BV2) [nmol/min/mg] | IC50 (LAT1 [2]) [µM] | Inhibition Type (LAT1 [2]; BV2) | half-life at 100 μM [3] [min] | Max. cellular uptake [4] | Km (LAT1 [5]; [13]) [µM] | Transport Type 1 (LAT1) Vmax (LAT1 [5]; [13]) [pmol/mg/min] | Cellular uptake in the presence of LAT1-inhibitor (LAT1 [6]) | Conversion to parent drug in the analysed samples [7] | IC50 (LAT1 [8]) [µM] | Cellular uptake (LAT1 [5]; BV2 cells) | Vmax of [14C]-L-Leu uptake (control) (LAT1 [2]; 0.010–0.20 µM [14C]-L-Leu alone, no compound, BV2) [nmol/min/mg] | Km (LAT1 [2]; 0.010–0.20 µM [14C]-L-Leu alone, no compound, BV2, read-out: Km of [14C]-L-Leu uptake (control)) [nM] | Vmax of [14C]-L-leucine uptake (LAT1 [9]) [nmol/min/mg protein] | Km (LAT1 [9]; read-out: Km of [14C]-L-leucine uptake) [µM]
1 | CC(C)Cc1ccc([C@H](C)C(=O)Oc2cccc(C[C@H](N)C(=O)O)c2)cc1 [Compound 13] | 9.7 ± 1.2 | 9.8 ± 1.4 | 36.3 ± 1.2 | 2.186 ± 0.231 | 5 | Mixed type | 3.6 ± 1.47 | 25.90 ± 2.41 nmol/mg of protein | 8.2 ± 1.8 | 63 ± 8 | inhibited significantly | partly converted to their parent | 5.3 ± 1.2 |  |  |  |  | 
2 | C[C@H](C(=O)OCc1ccc(C[C@@H](N)C(=O)O)cc1)c1cccc(C(=O)c2ccccc2)c1 [Compound 14] | 91.5 ± 1.2 | 32 ± 1.4 | 37.6 ± 1.7 | 2.622 ± 0.268 | 53 | Mixed type | 2.2 ± 0.62 | 10.20 ± 0.61 nmol/mg of protein |  |  | only reductive trends were seen | fully converted into ketoprofen | 52.9 ± 1.3 | highest cellular uptake |  |  |  | 
3 | CC(C)C[C@H](N)C(=O)O [L-Leu (Crtl), L-leucine, reference compound] |  |  |  |  |  |  |  |  |  |  |  |  |  |  | 3.403 ± 0.055 | 115 ± 7 | 0.84 ± 0.12 | 85.8 ± 19.4
